Experimental data as given in patent US8470765B2, “Polypeptides and antibacterial or antiseptic use of same” (AnGes MG, Inc., priority 2009, dated 2013).
Values after ≈ are worked out from the molar mass of the structure shown.

What was measured:
[1] = tested on: Acinetobacter baumanni JCM6841; details: Table 4; two tests, first/second value where not identical
[2] = tested on: Salmonella typhimurium JCM1652; assay: microbe, parasite or virus in culture; details: Salmonella enterica, read-out: MIC Salmonella Typhimurium
[3] = tested on: Streptococcus pyogenes JCM5674; assay: microbe, parasite or virus in culture; details: JCM5674, read-out: MIC Streptococcus pyogenes
[4] = tested on: Micrococcus luteus NBRC13867; assay: microbe, parasite or virus in culture; details: NBRC13867, read-out: MIC Micrococcus luteus
[5] = tested on: Fusobacterium nucleatum JCM 11025; assay: microbe, parasite or virus in culture; details: JCM11025, read-out: MIC Fusobacterium nucleatum
[6] = tested on: Bacillus subtilis NBRC3134; assay: microbe, parasite or virus in culture; details: NBRC3134, read-out: MIC Bacillus subtilis
[7] = tested on: Bacteroides fragilis JCM 11019; assay: microbe, parasite or virus in culture; details: JCM11019, read-out: MIC Bacteroides fragilis
[8] = tested on: Actinobacillus actinomycetemcomitans JCM2434; assay: microbe, parasite or virus in culture; details: Aggregatibacter actinomycetemcomitans, JCM2434, read-out: MIC Actinobacillus actinomycetemcomitans
[9] = tested on: Salmonella enteritidis IID 604; assay: microbe, parasite or virus in culture; details: Salmonella enterica, read-out: MIC Salmonella Enteritidis

Structure (SMILES): O=C(N[C@H](CO)[C@H](O)c1ccc([N+](=O)[O-])cc1)C(Cl)Cl [chloramphenicol]
- MIC Acinetobacter baumanni [1]: 16/32
- MIC [2]: 4 µg/mL (≈ 12.4 µM)
- MIC [3]: 2 µg/mL (≈ 6.19 µM)
- MIC [4]: 1 µg/mL (≈ 3.09 µM)
- MIC [5]: 0.25 µg/mL (≈ 0.774 µM)
- MIC [6]: 4 µg/mL (≈ 12.4 µM)
- MIC [7]: 1 µg/mL (≈ 3.09 µM)
- MIC [8]: 0.5 µg/mL (≈ 1.55 µM)
- MIC [9]: 4 µg/mL (≈ 12.4 µM)
